Test results as given in patent publication US8420693B2, “Dipyrrole compounds, compositions, and methods for treating cancer or viral diseases” (Gemin X Pharmaceuticals Canada Inc., priority 2004, dated 2013).

How the values were obtained:
[1] = system: H1299 human non-small cell lung cancer-cells; assay: Cancer cell viability by cellular ATP levels (ViaLight), H1299; assay type: cell-based; conditions: NCI-H1299, 72 h, 3 days of incubation, ATP levels relative to untreated control
Experimental: (§1) Selected cell lines included C33A cervical carcinoma cells and H1299 human non-small cell lung cancer-cells (American Type Culture Collection, Manassas, Va. USA), which were cultured in the media recommended by the American Type Culture Collection. The cells lines were plated in 96-well microtiter plates (PerkinElmer Life Sciences Inc, Boston, Mass., USA) at a confluency that allowed them to reach confluence after 4 days of growth. One day after plating, the cells were treated with various concentrations of Compounds. Stock solutions of the Compounds were prepared in dimethyl sulfoxide (Sigma-Aldrich Inc., St. Louis, Mo., USA), diluted in the recommended media and then added to the cells. The total dimethyl sulfoxide on the cells was 0.1%. After 3 days of incubation the ATP levels in the cells were quantified using a luminescent ViaLight detection system (Bio-Whittaker, MD, USA). The results were plotted relative to untreated control cells, which were set at a value of 100. The IC50s were determined using a best-fit sigmoidal dose response curve with variable slope.

[2] = system: C33A cervical carcinoma cells; assay: Cancer cell viability by cellular ATP levels (ViaLight), C33A; assay type: cell-based; conditions: Homo sapiens, C-33-A, 72 h, 3 days of incubation, ATP levels relative to untreated control
Experimental: as §1

IC50 [1]	IC50 [2]	Compound
10 µM	10 µM	COC1=CC(c2ccccc2)=NC1=Cc1[nH]c(C)cc1C [Compound 1, 3-methoxy-2-((3,5-dimethyl-1H-pyrrol-2-yl)methylene)-5-phenyl-2H-pyrrole]
10 µM	2.5 µM	COC1=CC(c2ccc(Cl)cc2)=NC1=Cc1[nH]c(C)cc1C [Compound 2, 5-(4-chlorophenyl)-3-methoxy-2-((3,5-dimethyl-1H-pyrrol-2-yl)methylene)-2H-pyrrole]
10 µM	3 µM	COC1=CC(c2ccc(F)cc2F)=NC1=Cc1[nH]c(C)cc1C [Compound 3, 2-((5-(2,4-difluorophenyl)-3-methoxy-2H-pyrrol-2-ylidene)methyl)-3,5-dimethyl-1H-pyrrole]
16.6 µM	16.6 µM	COC1=CC(c2cccc3ncccc23)=NC1=Cc1[nH]c(C)cc1C [Compound 4, 5-(4-methoxy-5-((3,5-dimethyl-1H-pyrrol-2-yl)methylene)-5H-pyrrol-2-yl)quinoline]
10 µM	2.2 µM	COC1=CC(c2ccc(F)cc2)=NC1=Cc1[nH]c(C)cc1C [Compound 5, 5-(4-fluorophenyl)-3-methoxy-2-((3,5-dimethyl-1H-pyrrol-2-yl)methylene)-2H-pyrrole]
15 µM	9.5 µM	COC1=CC(c2ccc(Br)s2)=NC1=Cc1[nH]c(C)cc1C [Compound 7, 2-((5-(5-bromothiophen-2-yl)-3-methoxy-2H-pyrrol-2-ylidene)methyl)-3,5-dimethyl-1H-pyrrole]
10 µM	8 µM	COC1=CC(c2ccc(NS(C)(=O)=O)cc2)=N/C1=C\c1[nH]c(C)cc1C [Compound 8, N-4-(4-methoxy-5-((3,5-dimethyl-1H-pyrrol-2-yl)methylene)-5H-pyrrol-2-yl)-phenyl-methylsulfonamide]
21.6 µM	10.6 µM	COC1=CC(c2ccc(C=O)cc2)=NC1=Cc1[nH]c(C)cc1C [Compound 9, 4-(4-methoxy-5-((3,5-dimethyl-1H-pyrrol-2-yl)methylene)-5H-pyrrol-2-yl)benzaldehyde]
4.6 µM	3 µM	COC1=CC(c2cc3ccccc3s2)=NC1=Cc1[nH]c(C)cc1C [Compound 10, 2-((5-(benzo[b]thiophen-2-yl)-3-methoxy-2H-pyrrol-2-ylidene)methyl)-3,5-dimethyl-1H-pyrrole]
12.5 µM	7 µM	COC1=CC(c2ccc(OC)cc2C=O)=NC1=Cc1[nH]c(C)cc1C [Compound 11, 5-methoxy-2-(4-methoxy-5-((3,5-dimethyl-1H-pyrrol-2-yl)methylene)-5H-pyrrol-2-yl)benzaldehyde]
14 µM	15 µM	COC1=CC(c2cccc([N+](=O)[O-])c2)=NC1=Cc1[nH]c(C)cc1C [Compound 12, 2-((3-methoxy-5-(3-nitrophenyl)-2H-pyrrol-2-ylidene)methyl)-3,5-dimethyl-1H-pyrrole]
40 µM	2 µM	COC1=CC(c2ccco2)=NC1=Cc1[nH]c(C)cc1C [Compound 13, 2-((5-(furan-2-yl)-3-methoxy-2H-pyrrol-2-ylidene)methyl)-3,5-dimethyl-1H-pyrrole]
6.5 µM	0.7 µM	COC1=CC(c2ccoc2)=NC1=Cc1[nH]c(C)cc1C [Compound 14, 2-((5-(furan-3-yl)-3-methoxy-2H-pyrrol-2-ylidene)methyl)-3,5-dimethyl-1H-pyrrole]
6.6 µM	0.75 µM	COC1=CC(c2ccsc2)=NC1=Cc1[nH]c(C)cc1C [Compound 15, 2-((3-methoxy-5-(thiophen-3-yl)-2H-pyrrol-2-ylidene)methyl)-3,5-dimethyl-1H-pyrrole]
4.5 µM	3 µM	COC1=CC(c2ccc(OC)cc2OC)=NC1=Cc1[nH]c(C)cc1C [Compound 16, 2-((3-methoxy-5-(2,4-dimethoxyphenyl)-2H-pyrrol-2-ylidene)methyl)-3,5-dimethyl-1H-pyrrole]
0.58 µM	0.21 µM	COC1=CC(c2ccc(OC)c(OC)c2)=NC1=Cc1[nH]c(C)cc1C [Compound 17, 2-((3-methoxy-5-(3,4-dimethoxyphenyl)-2H-pyrrol-2-ylidene)methyl)-3,5-dimethyl-1H-pyrrole]
4 µM	2 µM	COC1=CC(c2ccc(OC)c(OC)c2OC)=NC1=Cc1[nH]c(C)cc1C [Compound 18, 2-((3-methoxy-5-(2,3,4-trimethoxyphenyl)-2H-pyrrol-2-ylidene)methyl)-3,5-dimethyl-1H-pyrrole]
20 µM	20 µM	COC1=CC(c2cc(OC)ccc2OC)=NC1=Cc1[nH]c(C)cc1C [Compound 19, 2-((3-methoxy-5-(2,5-dimethoxyphenyl)-2H-pyrrol-2-ylidene)methyl)-3,5-dimethyl-1H-pyrrole]
0.55 µM	0.21 µM	COC1=CC(c2ccc3c(c2)OCO3)=NC1=Cc1[nH]c(C)cc1C [Compound 20, 2-((5-(benzo[d][1,3]dioxol-5-yl)-3-methoxy-2H-pyrrol-2-ylidene)methyl)-3,5-dimethyl-1H-pyrrole]
1.34 µM	0.69 µM	COC1=CC(c2ccc(OCCN3CCCC3)cc2)=NC1=Cc1[nH]c(C)cc1C [Compound 21, 2-((5-(4-(2-(pyrrolidin-1-yl)ethoxy)phenyl)-3-methoxy-2H-pyrrol-2-ylidene)methyl)-3,5-dimethyl-1H-pyrrole]
0.42 µM	0.29 µM	COC1=CC(c2ccc(N(C)C)cc2)=NC1=Cc1[nH]c(C)cc1C [Compound 22, 4-(4-methoxy-5-((3,5-dimethyl-1H-pyrrol-2-yl)methylene)-5H-pyrrol-2-yl)-N,N-dimethylbenzenamine]
7.55 µM	1.6 µM	COC1=CC(c2ccc3c(c2)OCCO3)=NC1=Cc1[nH]c(C)cc1C [Compound 23, 2-((5-(2,3-dihydrobenzo[b][1,4]dioxin-7-yl)-3-methoxy-2H-pyrrol-2-ylidene)methyl)-3,5-dimethyl-1H-pyrrole]
1.06 µM	0.503 µM	COC1=CC(c2ccc(OC)c(C)c2)=NC1=Cc1[nH]c(C)cc1C [Compound 24, 2-((3-methoxy-5-(4-methoxy-3-methylphenyl)-2H-pyrrol-2-ylidene)methyl)-3,5-dimethyl-1H-pyrrole]
16.5 µM	7.75 µM	COC1=CC(c2ccc(C(=O)N3CCCC3)cc2)=NC1=Cc1[nH]c(C)cc1C [Compound 25, (4-(4-methoxy-5-((3,5-dimethyl-1H-pyrrol-2-yl)methylene)-5H-pyrrol-2-yl)phenyl)(pyrrolidin-1-yl)methanone]
3.65 µM	0.849 µM	COC1=CC(c2ccc(OC)c(F)c2)=NC1=Cc1[nH]c(C)cc1C [Compound 26, 2-((5-(3-fluoro-4-methoxyphenyl)-3-methoxy-2H-pyrrol-2-ylidene)methyl)-3,5-dimethyl-1H-pyrrole]
6.26 µM	7 µM	COC1=CC(c2ccc3cc(OC)ccc3c2)=NC1=Cc1[nH]c(C)cc1C [Compound 27, 2-((3-methoxy-5-(2-methoxynaphthalen-6-yl)-2H-pyrrol-2-ylidene)methyl)-3,5-dimethyl-1H-pyrrole]

Compound	IC50 [1]	IC50 [2]
COC1=CC(c2cccs2)=NC1=Cc1[nH]c(C)cc1C [Compound 6, 2-((3-methoxy-5-(thiophen-2-yl)-2H-pyrrol-2-ylidene)methyl)-3,5-dimethyl-1H-pyrrole]	8.5 µM	6.5 µM
